pIC50: −log10 of the molar value.
Assay: Cytotoxicity against human HL60 cells assessed as cell growth inhibition after 72 hrs by MTT assay
Format: functional, cell-based
Conditions: HL-60, 72 h

SMILES | pIC50
C[C@@H]1CCC=C2CC[C@]3(C[C@]21C)O[C@]3(C)CO | 4.24
COc1cc([C@@H]2c3cc4c(cc3[C@@H](O[C@@H]3O[C@@H]5CO[C@@H](C)O[C@H]5[C@H](O)[C@H]3O)[C@H]3COC(=O)[C@H]23)OCO4)cc(OC)c1O [ETOPOSIDE] | 6.52
